From the supplement of paper PMC13380429

Experiments:
Details in all cases: 72 h
HepG2 [1] = experiment: drug sensitivity score (DSS) for viability; higher = more toxic; extreme values may be limits of the assay
Caco-2 [2] = experiment: as above
Calu-3 [3] = experiment: as above
U2OS [4] = experiment: as above
Vero E6 [5] = experiment: as above
HepG2 [6] = experiment: cell viability relative to DMSO; higher = less toxic
Caco-2 [7] = experiment: as above
Calu-3 [8] = experiment: as above
U2OS [9] = experiment: as above
Vero E6 [10] = experiment: as above
HepG2 [11] = experiment: relative viability EC50 (midpoint between 100% and the lowest measured viability); higher = less toxic
Caco-2 [12] = experiment: as above
Calu-3 [13] = experiment: as above
U2OS [14] = experiment: as above
Vero E6 [15] = experiment: as above

SMILES | drug sensitivity score (HepG2 [1]) | drug sensitivity score (Caco-2 [2]) | drug sensitivity score (Calu-3 [3]) | drug sensitivity score (U2OS [4]) | drug sensitivity score (Vero E6 [5]) | cell viability (HepG2 [6]; 1 nM) [%] | cell viability (HepG2 [6]; 10 nM) [%] | cell viability (HepG2 [6]; 100 nM) [%] | cell viability (HepG2 [6]; 1000 nM) [%] | cell viability (HepG2 [6]; 10000 nM) [%] | cell viability (Caco-2 [7]; 1 nM) [%] | cell viability (Caco-2 [7]; 10 nM) [%] | cell viability (Caco-2 [7]; 100 nM) [%] | cell viability (Caco-2 [7]; 1000 nM) [%] | cell viability (Caco-2 [7]; 10000 nM) [%] | cell viability (Calu-3 [8]; 1 nM) [%] | cell viability (Calu-3 [8]; 10 nM) [%] | cell viability (Calu-3 [8]; 100 nM) [%] | cell viability (Calu-3 [8]; 1000 nM) [%] | cell viability (Calu-3 [8]; 10000 nM) [%] | cell viability (U2OS [9]; 1 nM) [%] | cell viability (U2OS [9]; 10 nM) [%] | cell viability (U2OS [9]; 100 nM) [%] | cell viability (U2OS [9]; 1000 nM) [%] | cell viability (U2OS [9]; 10000 nM) [%] | cell viability (Vero E6 [10]; 1 nM) [%] | cell viability (Vero E6 [10]; 10 nM) [%] | cell viability (Vero E6 [10]; 100 nM) [%] | cell viability (Vero E6 [10]; 1000 nM) [%] | cell viability (Vero E6 [10]; 10000 nM) [%] | relative viability EC50 (HepG2 [11]) [µM] | relative viability EC50 (Caco-2 [12]) [µM] | relative viability EC50 (Calu-3 [13]) [µM] | relative viability EC50 (U2OS [14]) [µM] | relative viability EC50 (Vero E6 [15]) [µM]
CN1C(CCl)Nc2cc(Cl)c(S(N)(=O)=O)cc2S1(=O)=O (stereo not given) [methyclothiazide] | 0 | 0 | 0 | 0 | 0 | 96.3 | 96.1 | 106 | 104 | 105 | 101 | 103 | 104 | 103 | 94.9 | 103 | 91.8 | 97.9 | 105 | 108 | 104 | 96.9 | 101 | 98.4 | 102 | 94.3 | 96.6 | 94.8 | 99.4 | 99.7 | > 10 | > 10 | > 10 | > 10 | > 10
O=C(O)Cc1cccc2c(=O)cc(-c3ccccc3)oc12 [mitoflaxone] | 0 | 0 | 0 | 0 | 0 | 98.3 | 92.3 | 93.2 | 103 | 114 | 86 | 101 | 89.6 | 104 | 112 | 96 | 102 | 97 | 95.8 | 112 | 99.5 | 98 | 97.3 | 102 | 104 | 96.9 | 99.8 | 95.7 | 94.9 | 107 | > 10 | > 10 | > 10 | > 10 | > 10
NC/C(=C/F)CCc1ccc(F)cc1 [mofegiline] | 0 | 0 | 0 | 0 | 0 | 98 | 91.5 | 87.9 | 90 | 97.4 | 89.5 | 96.7 | 85.8 | 90.4 | 92.4 | 102 | 97.7 | 102 | 104 | 88.4 | 98.6 | 99.3 | 95.7 | 96.2 | 96.3 | 92.5 | 102 | 90.5 | 91.7 | 95 | > 10 | > 10 | > 10 | > 10 | > 10
Oc1ccc(OCc2ccccc2)cc1 [monobenzone] | 0 | 0 | 0 | 0 | 0 | 91.6 | 94.9 | 109 | 103 | 90.2 | 99.2 | 92.6 | 103 | 107 | 88.3 | 97.5 | 95.5 | 94.6 | 98.9 | 94.5 | 107 | 96.9 | 94.9 | 102 | 110 | 95.8 | 97.4 | 97.3 | 100 | 100 | > 10 | > 10 | > 10 | > 10 | > 10
CN(C(=O)/C=C/c1ccoc1)[C@@H]1CC[C@@]2(O)[C@H]3Cc4ccc(O)c5c4[C@@]2(CCN3CC2CC2)[C@H]1O5 [nalfurafine] | 0 | 0 | 0 | 0 | 0 | 102 | 104 | 95.5 | 97.7 | 102 | 104 | 92.9 | 99 | 107 | 104 | 92.2 | 103 | 106 | 96.8 | 91.3 | 100 | 99.8 | 100 | 103 | 105 | 90.6 | 101 | 89.5 | 95.6 | 102 | > 10 | > 10 | > 10 | > 10 | > 10
Cn1cc(C(=O)c2cccc3ccccc23)cc1C(=O)O [napirimus] | 0 | 0 | 0 | 0 | 0 | 101 | 97.9 | 103 | 99.8 | 94.8 | 99.3 | 92 | 95.4 | 96.5 | 85.6 | 98.7 | 104 | 100 | 101 | 104 | 104 | 100 | 101 | 98.3 | 98.4 | 92.9 | 99.7 | 95.2 | 105 | 99 | > 10 | > 10 | > 10 | > 10 | > 10
Cn1c(NCCN(CCO)CCCc2ccc([N+](=O)[O-])cc2)cc(=O)n(C)c1=O [nifekalant] | 0 | 1.8 | 0 | 0 | 0 | 109 | 106 | 94 | 86.1 | 109 | 107 | 96.7 | 86.9 | 90.8 | 92.5 | 96.2 | 103 | 104 | 110 | 95.3 | 95.1 | 94.3 | 98.9 | 97.7 | 99.4 | 89.8 | 102 | 91.6 | 102 | 104 | > 10 | > 10 | > 10 | > 10 | > 10
CNCCC=C1c2ccccc2C=Cc2ccccc21 [norcyclobenzaprine] | 0 | 0 | 0.1 | 0 | 0 | 94.7 | 93.4 | 102 | 98.3 | 89.3 | 94.2 | 96.4 | 97.7 | 102 | 90.5 | 109 | 96.6 | 103 | 105 | 84.8 | 102 | 98.1 | 100 | 106 | 100 | 95.9 | 97.5 | 92.6 | 94.5 | 95.2 | > 10 | > 10 | > 10 | > 10 | > 10
C[C@@H]1CC(=O)c2c(ccc3c2C(=O)c2cccc(O)c2C3=O)C1 [ochromycinone] | 1.4 | 0 | 0 | 0 | 0.6 | 87.4 | 91 | 96.6 | 96.5 | 76 | 107 | 96.1 | 99.6 | 110 | 112 | 100 | 104 | 103 | 104 | 92.8 | 101 | 100 | 93.9 | 99.7 | 99.9 | 100 | 100 | 104 | 93.3 | 85.8 | > 10 | > 10 | > 10 | > 10 | > 10
O=C(O)CCc1nc(-c2ccccc2)c(-c2ccccc2)o1 [oxaprozin] | 0 | 0 | 0 | 0 | 0 | 104 | 99.1 | 107 | 109 | 92.1 | 94.7 | 97.1 | 100 | 108 | 101 | 98.3 | 92.1 | 102 | 96.8 | 102 | 102 | 95.4 | 101 | 94.2 | 96.8 | 99 | 97.5 | 94.8 | 104 | 97.2 | > 10 | > 10 | > 10 | > 10 | > 10
CONC(=N)c1ccc(-c2ccc(-c3ccc(C(=N)NOC)cc3)o2)cc1 [pafuramidine] | 0 | 0 | 0 | 0 | 0 | 94.4 | 106 | 99.2 | 92.9 | 110 | 92.3 | 97 | 92.5 | 97.5 | 87.9 | 98.3 | 97.4 | 95.4 | 96 | 98.5 | 99.1 | 99.8 | 96.9 | 102 | 98.9 | 98.2 | 97.5 | 96 | 93.9 | 107 | > 10 | > 10 | > 10 | > 10 | > 10
